What follows are molecules tested against T1, purified recombinant active kinase domain of full length PKC theta (amino acids 362-706) (Homo sapiens, UniProt Q04759) (assay: Radioactive kinase assay for inhibition of the active kinase domain (KD) of PKCθ). Details: radioactive (ATP γ P33) assay, average value.
T1 construct: active kinase domain of full length PKC theta (amino acids 362-706)
Type: biochemical
Experimental: A Radioactive Kinase Assay for Inhibition of the Active Kinase Domain (KD) of PKCθ
(§1) This assay is based on the phosphorylation of a biotinylated substrate by a kinase utilizing radiolabeled ATP (ATP γ P33). The substrate was a biotinylated peptide with a sequence of biotin-FARKGSLRQ-C(O)NH2. The enzyme was purified recombinant active kinase domain of full length PKC theta (amino acids 362-706). The assay buffer was composed of 100 mM Hepes, pH7.5, 2 mM MgCl2, 20 mM β-glycerophosphate and 0.008% TritonX 100. A reaction mixture of ATP, ATP γ P33 (PerkinElmer), DTT, and the enzyme was prepared in the assay buffer and added to a 96-well polypropylene plate. The compound (diluted in DMSO in a separate 96-well polypropylene plate) was added to the reaction mixture and incubated at room temperature. Following the incubation, the peptide substrate was added to the reaction mixture to initiate the enzymatic reaction. The reaction was terminated with the addition of a stop solution (100 mM EDTA, 0.2% TritonX100, and 20 mM NaHPO4) and transferred from the assay plate to a washed streptavidin-coated 96-well scintiplate (PerkinElmer). The scintiplate was incubated at room temperature, washed in PBS with 0.1% TritonX 100, and counted in the 1450 Microbeta Trilux (Wallac, Version 2.60). Counts were recorded for each well as corrected counts per minute (CCPM). The counts were considered corrected because they were adjusted according to a P33 normalization protocol, which corrects for efficiency and background differences between the instrument detectors (software version 4.40.01).

T1 sequence (Q04759 362-706): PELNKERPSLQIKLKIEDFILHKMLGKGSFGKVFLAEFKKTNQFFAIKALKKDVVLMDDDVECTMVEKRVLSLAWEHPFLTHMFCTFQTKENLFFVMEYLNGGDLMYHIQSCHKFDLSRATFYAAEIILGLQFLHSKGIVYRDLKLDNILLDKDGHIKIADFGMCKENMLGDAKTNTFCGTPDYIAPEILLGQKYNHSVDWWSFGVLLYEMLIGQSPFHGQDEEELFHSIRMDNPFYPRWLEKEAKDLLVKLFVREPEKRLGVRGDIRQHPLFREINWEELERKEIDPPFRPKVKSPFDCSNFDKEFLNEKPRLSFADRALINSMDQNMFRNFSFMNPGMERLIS

**Q.** `COc1cc(Nc2c(C#N)cncc2-c2ccc(OC)c(OC)c2)c(Cl)cc1Cl` [Compound 137, 4-[(2,4-dichloro-5-methoxyphenyl)amino]-5-(3,4-dimethoxyphenyl)nicotinonitrile] was tested. Which IC50 did it give?
**A.** 0.19 µM

**Q.** For `COc1ccc(-c2cncc(C#N)c2Nc2ccc(Cl)cc2Cl)cc1OC` [Compound 126, 4-[(2,4-dichlorophenyl)amino]-5-(3,4-dimethoxyphenyl)nicotinonitrile], which IC50 is on record?
**A.** 0.34 µM

**Q.** For `COc1ccc(Cl)cc1Nc1c(C#N)cncc1-c1ccc(OC)c(OC)c1` [Compound 116, 4-[(5-chloro-2-methoxyphenyl)amino]-5-(3,4-dimethoxyphenyl)nicotinonitrile], which IC50 is on record?
**A.** 3.2 µM

**Q.** `COc1ccc(-c2cncc(C#N)c2Nc2ccc(C)cc2C)cc1OC` [Compound 109, 5-(3,4-dimethoxyphenyl)-4-[(2,4-dimethylphenyl)amino]nicotinonitrile] was tested. Which IC50 did it give?
**A.** 0.81 µM

**Q.** `COc1ccc(-c2cncc(C#N)c2Nc2ccc(Cl)cc2)cc1OC` [Compound 108, 4-[(4-chlorophenyl)amino]-5-(3,4-dimethoxyphenyl)nicotinonitrile] was tested. Which IC50 did it give?
**A.** 2.77 µM

**Q.** For `COc1ccc(-c2cncc(C#N)c2Nc2cc(OC)c(OC)c(OC)c2)cc1OC` [Compound 119, 5-(3,4-dimethoxyphenyl)-4-[(3,4,5-trimethoxyphenyl)amino]nicotinonitrile], which IC50 is on record?
**A.** 11.7 µM

**Q.** How did the IC50 turn out when `COc1ccc(-c2cncc(C#N)c2Nc2ccc(OCc3cccs3)c(Cl)c2)cc1OC` [Compound 123, 4-{[3-chloro-4-(thien-2-ylmethoxy)phenyl]amino}-5-(3,4-dimethoxyphenyl)nicotinonitrile] was run?
**A.** 38 µM

**Q.** How did the IC50 turn out when `N#Cc1cncc(-c2ccccc2[N+](=O)[O-])c1Nc1ccc(F)c(Cl)c1` [Compound 146, 4-[(3-chloro-4-fluorophenyl)amino]-5-(2-nitrophenyl)nicotinonitrile] was run?
**A.** 3.85 µM

**Q.** For `COc1ccc(Nc2c(C#N)cncc2-c2ccc(OC)c(OC)c2)cc1Cl` [Compound 111, 4-[(3-chloro-4-methoxyphenyl)amino]-5-(3,4-dimethoxyphenyl)nicotinonitrile], which IC50 is on record?
**A.** 1.41 µM

**Q.** For `COc1ccc(-c2cncc(C#N)c2Nc2cccc(OCc3ccccc3)c2)cc1OC` [Compound 117, 4-{[3-(benzyloxy)phenyl]amino}-5-(3,4-dimethoxyphenyl)nicotinonitrile], which IC50 is on record?
**A.** 13.8 µM

**Q.** For `COc1ccc(-c2cncc(C#N)c2Nc2cccc(Br)c2)cc1OC` [Compound 135, 4-[(3-bromophenyl)amino]-5-(3,4-dimethoxyphenyl)nicotinonitrile], which IC50 is on record?
**A.** 5 µM

**Q.** For `COc1ccc(-c2cncc(C#N)c2Nc2ccc(Cl)cc2F)cc1OC` [Compound 106, 4-[(4-chloro-2-fluorophenyl)amino]-5-(3,4-dimethoxyphenyl)nicotinonitrile], which IC50 is on record?
**A.** 0.84 µM

**Q.** Which IC50 does the source give for `COc1ccc(-c2cncc(C#N)c2Nc2cc(Cl)ccc2Cl)cc1OC` [Compound 113, 4-[(2,5-dichlorophenyl)amino]-5-(3,4-dimethoxyphenyl)nicotinonitrile] here?
**A.** 3.6 µM

**Q.** For `COc1ccc(-c2cncc(C#N)c2Nc2ccc(OCc3cccc(C#N)c3)c(Cl)c2)cc1OC` [Compound 122, 4-({3-chloro-4-[(3-cyanobenzyl)oxy]phenyl}amino)-5-(3,4-dimethoxyphenyl)nicotinonitrile], which IC50 is on record?
**A.** 1040 µM

**Q.** `COc1ccc(-c2cncc(C#N)c2Nc2cccc(Cl)c2)cc1OC` [Compound 101, 4-[(3-chlorophenyl)amino]-5-(3,4-dimethoxyphenyl)nicotinonitrile] was tested. Which IC50 did it give?
**A.** 6.87 µM

**Q.** How did the IC50 turn out when `COc1ccc(-c2cncc(C#N)c2Nc2ccc(F)c(Cl)c2)cc1OC` [Compound 107, 4-[(3-chloro-4-fluorophenyl)amino]-5-(3,4-dimethoxyphenyl)nicotinonitrile] was run?
**A.** 2.91 µM

**Q.** With `COc1ccc(-c2cncc(C#N)c2Nc2ccc(C)cc2)cc1OC` [Compound 118, 5-(3,4-dimethoxyphenyl)-4-[(4-methylphenyl)amino]nicotinonitrile] as the molecule, how does the IC50 read?
**A.** 4.44 µM

**Q.** `COc1ccc(Nc2c(C#N)cncc2-c2ccc(OC)c(OC)c2)cc1` [Compound 110, 5-(3,4-dimethoxyphenyl)-4-[(4-methoxyphenyl)amino]nicotinonitrile] was tested. Which IC50 did it give?
**A.** 1.16 µM

**Q.** How did the IC50 turn out when `COc1ccc(-c2cncc(C#N)c2Nc2ccc(Cl)c(Cl)c2)cc1OC` [Compound 115, 4-[(3,4-dichlorophenyl)amino]-5-(3,4-dimethoxyphenyl)nicotinonitrile] was run?
**A.** 4.26 µM

**Q.** Which IC50 does the source give for `N#Cc1cncc(-c2cccc([N+](=O)[O-])c2)c1Nc1ccc(F)c(Cl)c1` [Compound 144, 4-[(3-chloro-4-fluorophenyl)amino]-5-(3-nitrophenyl)nicotinonitrile] here?
**A.** 158 µM

The molecules below were run against T2, purified recombinant full length PKC theta (Panvera, P2996) (Homo sapiens, UniProt Q04759) (assay: Radioactive kinase assay for inhibition of full length (FL) PKCθ). Details: full length enzyme; radioactive (ATP γ P33) assay; average value.
T2 construct: purified recombinant full length PKC theta (Panvera, P2996); purchased Panvera P2996
Type: biochemical
Experimental: as §1
A Radioactive Kinase Assay for Inhibition of Full Length (FL) PKCθ Inhibitors
This assay differs from what was described above in that the enzyme used was purified recombinant full length PKC theta (Panvera, P2996).

T2 sequence (Q04759 whole entry): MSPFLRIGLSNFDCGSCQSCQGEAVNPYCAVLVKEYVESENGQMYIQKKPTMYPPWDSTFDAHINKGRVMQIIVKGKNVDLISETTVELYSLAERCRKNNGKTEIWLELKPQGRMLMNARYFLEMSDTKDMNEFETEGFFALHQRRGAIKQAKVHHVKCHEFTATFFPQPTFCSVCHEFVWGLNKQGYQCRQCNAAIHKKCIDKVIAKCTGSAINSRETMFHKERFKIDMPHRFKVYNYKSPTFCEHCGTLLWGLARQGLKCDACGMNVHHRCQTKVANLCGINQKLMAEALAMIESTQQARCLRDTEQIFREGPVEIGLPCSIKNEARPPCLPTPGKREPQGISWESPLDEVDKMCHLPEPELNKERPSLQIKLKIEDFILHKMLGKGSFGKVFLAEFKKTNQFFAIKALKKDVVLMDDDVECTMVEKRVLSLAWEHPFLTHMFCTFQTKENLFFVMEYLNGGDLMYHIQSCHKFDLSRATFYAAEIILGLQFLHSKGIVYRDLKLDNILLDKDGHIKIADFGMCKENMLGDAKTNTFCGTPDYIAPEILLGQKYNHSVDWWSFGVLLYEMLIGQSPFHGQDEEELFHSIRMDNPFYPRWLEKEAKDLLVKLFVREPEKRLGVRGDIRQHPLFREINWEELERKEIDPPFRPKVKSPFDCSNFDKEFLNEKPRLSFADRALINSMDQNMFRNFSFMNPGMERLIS

**Q.** With `COc1cc(Nc2c(C#N)cncc2-c2ccc(OC)c(OC)c2)c(Cl)cc1Cl` [Compound 137, 4-[(2,4-dichloro-5-methoxyphenyl)amino]-5-(3,4-dimethoxyphenyl)nicotinonitrile] as the molecule, how does the IC50 read?
**A.** 0.16 µM

**Q.** `COCCOc1ccc(-c2cncc(C#N)c2Nc2cc(OC)c(Cl)cc2Cl)cc1OC` [Compound 149, 4-[(2,4-dichloro-5-methoxyphenyl)amino]-5-[3-methoxy-4-(2-methoxyethoxy)phenyl]nicotinonitrile] was tested. Which IC50 did it give?
**A.** 7.09 µM

**Q.** `CCOc1cc(Nc2c(C#N)cncc2-c2ccc(OC)c(OC)c2)c(Cl)cc1Cl` [Compound 138, 4-[(2,4-dichloro-5-ethoxyphenyl)amino]-5-(3,4-dimethoxyphenyl)nicotinonitrile] was tested. Which IC50 did it give?
**A.** 0.32 µM

**Q.** For `CCCOc1cc(Nc2c(C#N)cncc2-c2ccc(OC)c(OC)c2)c(Cl)cc1Cl` [Compound 139, 4-[(2,4-dichloro-5-propoxyphenyl)amino]-5-(3,4-dimethoxyphenyl)nicotinonitrile], which IC50 is on record?
**A.** 8 µM

**Q.** Which IC50 does the source give for `COc1cc(Nc2c(C#N)cncc2-c2cccc(OCCCl)c2)c(Cl)cc1Cl` [Compound 150, 5-[3-(2-chloroethoxy)phenyl]-4-[(2,4-dichloro-5-methoxyphenyl)amino]nicotinonitrile] here?
**A.** 0.5 µM

**Q.** For `COc1ccc(-c2cncc(C#N)c2Nc2cc(OCCO)c(Cl)cc2Cl)cc1OC` [Compound 141, 4-{[2,4-dichloro-5-(2-hydroxyethoxy)phenyl]amino}-5-(3,4-dimethoxyphenyl)nicotinonitrile], which IC50 is on record?
**A.** 0.16 µM

**Q.** Which IC50 does the source give for `COc1cc(Nc2c(C#N)cncc2-c2cccc(OCCN3CCCC3)c2)c(Cl)cc1Cl` [Compound 151, 4-[(2,4-dichloro-5-methoxyphenyl)amino]-5-[3-(2-pyrrolidin-1-ylethoxy)phenyl]nicotinonitrile] here?
**A.** 7.1 µM

**Q.** `COCCOc1cc(-c2cncc(C#N)c2Nc2cc(OC)c(Cl)cc2Cl)ccc1OC` [Compound 148, 4-[(2,4-dichloro-5-methoxyphenyl)amino]-5-[4-methoxy-3-(2-methoxyethoxy)phenyl]nicotinonitrile] was tested. Which IC50 did it give?
**A.** 0.52 µM

**Q.** With `COc1ccc(-c2cncc(C#N)c2Nc2ccc(Cl)c(Cl)c2)cc1OC` [Compound 115, 4-[(3,4-dichlorophenyl)amino]-5-(3,4-dimethoxyphenyl)nicotinonitrile] as the molecule, how does the IC50 read?
**A.** 0.38 µM

**Q.** For `CCCCOc1cc(Nc2c(C#N)cncc2-c2ccc(OC)c(OC)c2)c(Cl)cc1Cl` [Compound 140, 4-[(5-butoxy-2,4-dichlorophenyl)amino]-5-(3,4-dimethoxyphenyl)nicotinonitrile], which IC50 is on record?
**A.** 9.75 µM

Each molecule was assayed against T3, human PKCθ full length enzyme (Homo sapiens, UniProt Q04759) (assay: PKCθ IMAP assay). Details: full length enzyme 1 nM; ATP 6 μM; peptide 100 nM; FP readout; average value.
T3 construct: human PKCθ full length enzyme (Panvera Cat# P2996); purchased Panvera P2996
Type: biochemical
Experimental: The materials used include the following: human PKCθ full length enzyme (Panvera Cat# P2996); substrate peptide: 5FAM-RFARKGSLRQKNV-OH (Molecular Devices, RP7032); ATP (Sigma Cat # A2383); DTT (Pierce, 20291); 5× kinase reaction buffer (Molecular Devices, R7209); 5× binding buffer A (Molecular Devices, R7282), 5× binding buffer B (Molecular Devices, R7209); IMAP Beads (Molecular Devices, R7284); and 384-well plates (Corning Costar, 3710).
The reaction buffer was prepared by diluting the 5× stock reaction buffer and adding DTT to obtain a concentration of 3.0 mM. The binding buffer was prepared by diluting the 5× binding buffer A. A master mix solution was prepared using a 90% dilution of the reaction buffer containing 2× ATP (12 uM) and 2× peptide (200 nm). Compounds were diluted in DMSO to 20× of the maximum concentration for the IC50 measurement. 27 μl of the master mix solution for each IC50 curve was added to the first column in a 384-well plate and 3 μl of 20× compound in DMSO was added to each well. The final concentration of compound was 2× and 10% DMSO. DMSO was added to the rest of the master mix to increase the concentration to 10%. 10 μl of the master mix containing 10% DMSO was added to the rest of the wells on the plate except the 2nd column. 20 μl was transferred from the first column to the 2nd column.
The compounds were serially diluted in 2:1 ratio starting from the 2nd column. A 2× (2 nM) PKCθ solution was made in the reaction buffer. 10 μl of the PKCθ solution was added to every well to achieve these final concentrations: PKCθ—1 nM; ATP—6 μM; peptide—100 nM; DMSO—5%. Samples were incubated for 25 minutes at room temperature. The binding reagent was prepared by diluting the beads in 1× binding buffer to 800:1. 50 μl of the binding reagent was added to every well and incubated for 20 minutes. FP was measured using Envision2100 (PerkinElmer Life Sciences). Wells with no ATPs and wells with no enzymes were used as controls.

T3 sequence (Q04759 whole entry): as above

**Q.** With `COc1cc(Nc2c(C#N)cncc2-c2ccc(OC)c(OC)c2)c(Cl)cc1Cl` [Compound 137, 4-[(2,4-dichloro-5-methoxyphenyl)amino]-5-(3,4-dimethoxyphenyl)nicotinonitrile] as the molecule, how does the IC50 read?
**A.** 0.18 µM

**Q.** With `COc1ccc(-c2cncc(C#N)c2Nc2cc(OC)c(OC)c(OC)c2)cc1OC` [Compound 119, 5-(3,4-dimethoxyphenyl)-4-[(3,4,5-trimethoxyphenyl)amino]nicotinonitrile] as the molecule, how does the IC50 read?
**A.** 1.95 µM

**Q.** How did the IC50 turn out when `COc1ccc(-c2cncc(C#N)c2Nc2cc(OCCO)c(Cl)cc2Cl)cc1OC` [Compound 141, 4-{[2,4-dichloro-5-(2-hydroxyethoxy)phenyl]amino}-5-(3,4-dimethoxyphenyl)nicotinonitrile] was run?
**A.** 0.1 µM

Reference: US20070287738A1, “Substituted Cyanopyridines as protein kinase inhibitors” (priority 2006, published 2007)
